Experiments:
[1] = tested on: SARS CoV-2 NIV2020-770 isolate; format: cell-based; settings: 72 hours
[2] = tested on: PI-3 virus (enveloped virus); format: cell-based, Bovine parainfluenza virus
[3] = tested on: Escherichia coli (ATCC 8739); test: Evaluation of antimicrobial activity, E. coli; format: cell-based; settings: 10 mg/10 ml
[4] = tested on: Staphylococcus aureus (ATCC 6538); test: Evaluation of antimicrobial activity, S. aureus; format: cell-based; settings: 10 mg/10 ml
[5] = tested on: Bacillus subtilis (ATCC 6633); test: Evaluation of antimicrobial activity, B. subtilis; format: cell-based; settings: 10 mg/10 ml
avian influenza = tested on: avian influenza; design: species or system poultry birds; settings: in vivo
Oral toxicity LD50, rat = format: in vivo
Oral toxicity LD50, mice = format: in vivo
[6] = Water solubility / dispersibility of the synthesized substance; format: physicochemical; settings: semi solid creamy substance as synthesized

SMILES: CCCCCCCCCCCCCCCCC(=O)OC(O)CO (stereo not shown) [Formula II, 1,2-dihydroxyethyl heptadecanoate]
- inhibition of the RdRp-2 gene [1]: ~40%
- % Log reduction [2]: 99.25%
- Log10 Reduction [2]: 2.12 Log10
- Virus Titer (Log10 TCID50/mL) [2]: 2.50 Log10 TCID50/mL
- % reduction after 30 seconds ([3]; contact 30 seconds, inoculum 70000000 Cfu/ml): 31.43%
- % reduction after 1 minute ([3]; contact 1 minute): 55.71%
- % reduction after 5 minutes ([3]; contact 5 minutes): 60%
- % reduction after 10 minutes ([3]; contact 10 minutes): 64.29%
- % reduction after 20 minutes ([3]; contact 20 minutes): 99.9851%
- % reduction after 30 seconds ([4]; contact 30 seconds, inoculum 74000000 Cfu/ml): 31.08%
- % reduction after 1 minute ([4]; contact 1 minute): 43.24%
- % reduction after 5 minutes ([4]; contact 5 minutes): 54.05%
- % reduction after 10 minutes ([4]; contact 10 minutes): 62.16%
- % reduction after 20 minutes ([4]; contact 20 minutes): 99.9627%
- % reduction after 30 seconds ([5]; contact 30 seconds, inoculum 76000000 Cfu/ml): 27.63%
- % reduction after 1 minute ([5]; contact 1 minute): 44.74%
- % reduction after 5 minutes ([5]; contact 5 minutes): 59.21%
- % reduction after 10 minutes ([5]; contact 10 minutes): 65.79%
- % reduction after 20 minutes ([5]; contact 20 minutes): 99.9789%
- reduction in mortality of avian influenza infected birds (avian influenza): 92%
- LD 50 (Oral toxicity LD50, rat): 4000 mg per kg wt
- LD 50 (Oral toxicity LD50, mice): 4000 mg per kg wt
- solubility in water [6]: water soluble and/or water dispersible
- cytotoxicity (Vero CCL-81 cells): Dose dependent cytotoxicity
- CC50 (Vero CCL-81 cells; 72 hours): 600 fold dilution
